Series [1] concerns Mus musculus. Nature of the series: Percent increase in life-span against in vivo P388 murine leukemia at a dose 1.56 mg/kg in trail 1. It counts as functional.
Series [2] concerns Mus musculus. Nature of the series: Percent increase in life-span against in vivo P388 murine leukemia at a dose 6.25 mg/kg in trail 1. It is filed as functional.
In series [3] the test system is Mus musculus. Nature of the series: Percent increase in life-span against in vivo P388 murine leukemia at a dose 12.5 mg/kg in trail 2. It counts as functional.
A further series in a line: physchem. The following applies: octanol/water.
In series [4] the test system is Mus musculus. Nature of the series: Percent increase in life-span against in vivo P388 murine leukemia at a dose 0.78 mg/kg in trail 1. It counts as functional.
In series [5] the test system is Mus musculus. The series can be described thus: Percent increase in life-span against in vivo P388 murine leukemia at a dose 0.78 mg/kg in trail 2. It counts as functional.
The subject of series [6] is Mus musculus. The series can be described thus: Percent increase in life-span against in vivo P388 murine leukemia at a dose 1.56 mg/kg in trail 2. It counts as functional.
The test system of series [7] is Mus musculus. The series can be described thus: Percent increase in life-span against in vivo P388 murine leukemia at a dose 6.25 mg/kg in trail 2. It counts as functional.
The test system of series [8] is Mus musculus. Nature of the series: Percent increase in life-span against in vivo P388 murine leukemia at a dose 0.39 mg/kg) in trail 1. It counts as functional.
For series [9], the species on record is Mus musculus. The following applies: in vivo.
Description: Logarithm of toxic activity (1/lethal dose) in mice bearing P388 leukemia on chronic regimen (Q 1-9)
The subject of series [10] is Mus musculus. Nature of the series: Percent increase in life-span against in vivo P388 murine leukemia at a dose 0.39 mg/kg in trail 2. It counts as functional.
Series [11] concerns Mus musculus. Nature of the series: Percent increase in life-span against in vivo P388 murine leukemia at a dose 3.12 mg/kg in trail 2. It is filed as functional.
Series [12] concerns Mus musculus. The series can be described thus: Percent increase in life-span against in vivo P388 murine leukemia at a dose 3.12 mg/kg in trail 1. It counts as functional.
Series [13] can be described thus: Compound was tested for toxicity in non tumored mice. It is filed as organism-based. The following applies: mouse, in vivo.
Series [14] is described as follows: Compound was tested for toxicity in P388 tumored mice. It counts as organism-based. Particulars: mouse, in vivo.
Series [15] relates to Mus musculus. The series can be described thus: Percent increase in life-span against in vivo P388 murine leukemia at a dose 0.06 mg/kg in trail 1. It is filed as functional.
The test system of series [16] is Mus musculus. The series can be described thus: Percent increase in life-span against in vivo P388 murine leukemia at a dose 0.12 mg/kg in trail 2. It counts as functional.
Series [17] relates to Mus musculus. Nature of the series: Percent increase in life-span against in vivo P388 murine leukemia at a dose 0.25 mg/kg in trail 1. It is filed as functional.
In series [18] the test system is Mus musculus. Nature of the series: Percent increase in life-span against in vivo P388 murine leukemia at a dose 0.12 mg/kg in trail 1. It counts as functional.
The test system of series [19] is Mus musculus. The series can be described thus: Percent increase in life-span against in vivo P388 murine leukemia at a dose 0.06 mg/kg in trail 2. It counts as functional.
The test system of series [20] is Mus musculus. The series can be described thus: Percent increase in life-span against in vivo P388 murine leukemia at a dose 0.25 mg/kg in trail 2. It counts as functional.
Series [21] deals with Mus musculus. The series can be described thus: Percent increase in life-span against in vivo P388 murine leukemia at a dose 0.5 mg/kg in trail 2. It counts as functional.
In series [22] the test system is Mus musculus. Nature of the series: Percent increase in life-span against in vivo P388 murine leukemia at a dose 0.5 mg/kg in trail 1. It is filed as functional.

Description for physchem: Partition coefficient (logP)

One may read the ILS as the gain in survival time of treated over control animals, in per cent. Low readings indicate a small benefit in survival, high ones a large benefit in survival. The logP is a log measure of how a compound divides between an organic and an aqueous phase. A lower logP goes with lower lipophilicity. Regarding `COc1c(C=O)c2c(c(OC)c1OC)-c1ccc(OC)c(=O)cc1[C@@H](NC(C)=O)CC2`, the values for the increase in life span (ILS) at 1.56 mg/kg with Mus musculus [1] and with Mus musculus [6] were 60% and 75%, respectively. For the same compound, the ILS at 6.25 mg/kg in the series with Mus musculus [2] and in the series on Mus musculus [7] was 105% throughout. Also, the ILS at 12.5 mg/kg in the series with Mus musculus [3] is 2%. The same compound returned a logP in the series “physchem” of 5.92. Also, the ILS at 0.78 mg/kg in the series with Mus musculus [4] turned out to be 54%; with Mus musculus [5] it was 49%. Moreover, the increase in life span (ILS) at 0.39 mg/kg in the series with Mus musculus [8] stood at 51%; in the series with Mus musculus [10], 49%. Further, the “Log 1/LD50” value in the series filed under Mus musculus [9] came to 4.14. For the same compound, the values for the ILS at 3.12 mg/kg in the series with Mus musculus [11] and in the series with Mus musculus [12] were 80% and 94%, respectively.

`COC1=C2C(=CC(=O)C1OC)CC[C@H](NC(C)=O)c1cc(=O)c(OC)ccc12` (some centres undefined) registered a logP in “physchem” of 0.93. Also, the “Log 1/LD50” value in the series listed under Mus musculus [9] was 5.82.

With `COc1c(C#N)c2c(c(OC)c1OC)-c1ccc(OC)c(=O)cc1[C@@H](NC(C)=O)CC2`, in “physchem”, the logP was determined as 4.46. Moreover, the “Log 1/LD50” value in the series filed under Mus musculus [9] was 3.8.

As for `CCOC(=O)N[C@H]1CCc2cc(OC)c(OC)c(OC)c2-c2ccc(SC)c(=O)cc21`, in the series listed under Mus musculus [9], the “Log 1/LD50” value stood at 4.19.

Broadly, the LD50 is the dose expected to kill half of the subjects tested. Low values mean a more toxic substance, high ones a less toxic substance. Take `COc1cc2c(c(OC)c1OC)-c1ccc(SC)c(=O)cc1[C@@H](NC(=O)C(F)(F)F)CC2`: the LD50 in series [13] worked out at 3.5 mg/kg; in series [14], 1.4 mg/kg. Moreover, in the series filed under Mus musculus [9], the “Log 1/LD50” value came out at 5.51.

With `COc1cc2c(c(OC)c1OC)-c1ccc(OC)c(=O)cc1[C@@H](NC(=O)c1ccccc1)CC2`, in the series filed under Mus musculus [9], the “Log 1/LD50” value is 4.24.

On to `COc1cc2c(c(OC)c1OC)-c1ccc(SC)c(=O)cc1[C@@H](N)CC2`, for which the median lethal dose (LD50) in series [13] was found to be 177 mg/kg; in [14], 69 mg/kg. Moreover, in the series filed under Mus musculus [9], the “Log 1/LD50” value was determined as 3.75.

With `COc1cc2c(c(OC)c1OC)-c1ccc(SC)c(=O)cc1[C@@H](NC(=O)NCCCl)CC2`, the “Log 1/LD50” value in the series listed under Mus musculus [9] was determined as 4.93.

As to `COc1cc2c(c(OC)c1OC)-c1ccc(OC)c(=O)cc1[C@@H](NC(=O)CCl)CC2`, in the series filed under Mus musculus [9], the “Log 1/LD50” value is listed as 5.54.

Turning to `COc1cc2c(c(OC)c1OC)-c1ccc(OC)c(=O)cc1[C@@H](NC(=O)c1ccc([N+](=O)[O-])cc1)CC2`, the LD50 in series [13] worked out at 25 mg/kg; in series [14], 20 mg/kg. In the series filed under Mus musculus [9], the “Log 1/LD50” value worked out at 4.41.

As to `COc1cc2c(c(OC)c1OC)-c1ccc(SC)c(=O)cc1[C@@H](NO[C@H]1O[C@@H](CO)[C@H](O)[C@@H](O)[C@@H]1O)CC2`, the logP in “physchem” was 1.25. In addition, the “Log 1/LD50” value in the series listed under Mus musculus [9] came to 3.71.

`COc1cc2c(c(OC)c1OC)-c1ccc(SC)c(=O)cc1[C@@H](NO[C@H]1O[C@@H](COC(C)=O)[C@H](OC(C)=O)[C@@H](OC(C)=O)[C@@H]1OC(C)=O)CC2` had a logP in “physchem” of 4.61. In the series filed under Mus musculus [9], the “Log 1/LD50” value was 3.81.

As for `COc1cc2c(c(OC)c1OC)-c1ccc(SC)c(=O)cc1[C@@H](NO[C@H]1OC[C@@H](O)[C@@H](O)[C@@H]1O)CC2`, in the series “physchem”, the logP came to 1.4. Besides, the median lethal dose (LD50) in [13] is 251 mg/kg; in series [14], 102 mg/kg. Further, the “Log 1/LD50” value in the series listed under Mus musculus [9] is 3.98.

Consider `COc1cc2c(c(OC)c1OC)-c1ccc(SC)c(=O)cc1[C@@H](NC(=O)CCl)CC2`, for which the “Log 1/LD50” value in the series filed under Mus musculus [9] was 5.65.

Take `COc1c(CO)c2c(c(OC)c1OC)-c1ccc(OC)c(=O)cc1[C@@H](NC(C)=O)CC2`: the logP in “physchem” was determined as 4.58. In addition, the “Log 1/LD50” value in the series filed under Mus musculus [9] is listed as 3.4.

As for `COc1cc2c(c(OC)c1OC)-c1ccc(SC)c(=O)cc1[C@@H](NC(=O)CO)CC2`, the “Log 1/LD50” value in the series filed under Mus musculus [9] is recorded as 5.66.

For the compound `COc1cc2c(c(OC)c1OC)-c1ccc(OC)c(=O)cc1[C@@H](NC(=O)C(F)(F)F)CC2`, the LD50 was determined as 1.9 mg/kg in series [13] and 0.8 mg/kg in series [14]. In the series filed under Mus musculus [9], the “Log 1/LD50” value was 5.73.

As for `COC(=O)C(N)CCCC/N=c1\ccc2c(cc1O)[C@@H](NC(C)=O)CCc1cc(OC)c(OC)c(OC)c1-2` (some centres undefined), in the series listed under Mus musculus [9], the “Log 1/LD50” value was 3.

For `COc1cc2c(c(OC)c1OC)-c1ccc(OC)c(=O)cc1[C@@H](NC=O)CC2`, the LD50 in [13] was 5 mg/kg; in [14], 2.7 mg/kg. Moreover, in the series listed under Mus musculus [9], the “Log 1/LD50” value is listed as 5.16.

As for `COc1cc2c(c(OC)c1OC)-c1cc/c(=N\Cc3ccccc3)c(O)cc1[C@@H](NC(C)=O)CC2`, the LD50 was found to be 41 mg/kg in [13] and 25.1 mg/kg in series [14]. Moreover, the “Log 1/LD50” value in the series filed under Mus musculus [9] is listed as 4.28.

With `COc1cc2c(c(OC)c1OC)-c1ccc(OC)c(=O)cc1[C@@H](NC(=O)CF)CC2`, the “Log 1/LD50” value in the series listed under Mus musculus [9] is listed as 5.69.

For the compound `COc1cc2c(c(OC)c1OC)-c1ccc(SCc3ccccc3)c(=O)cc1[C@@H](NC(C)=O)CC2`, the “Log 1/LD50” value in the series filed under Mus musculus [9] is 4.22.

`COc1cc2c(c(OC)c1OC)-c1ccc(OC)c(=O)cc1[C@@H](N(C)C)CC2`: in the series filed under Mus musculus [9], the “Log 1/LD50” value is given as 4.21.

Consider `CNc1ccc2c(cc1=O)[C@@H](NC(C)=O)CCc1cc(OC)c(OC)c(OC)c1-2`, for which the LD50 in series [13] is 1.4 mg/kg; in series [14], 0.8 mg/kg. In the series listed under Mus musculus [9], the “Log 1/LD50” value was 5.72.

Regarding `COc1cc2c(c(OC)c1OC)-c1ccc(OC)c(=O)cc1[C@@H](NC(C)=O)CC2` [COLCHICINE], the ILS at 0.06 mg/kg with Mus musculus [15] worked out at 27%; in the series with Mus musculus [19] it was 24%. Also, the ILS at 0.12 mg/kg is 40% in the series with Mus musculus [16] and 33% with Mus musculus [18]. The ILS at 0.25 mg/kg with Mus musculus [17] was found to be 46%; in the series with Mus musculus [20], 58%. For the same compound, the LD50 amounted to 1.6 mg/kg in [13] and 1.4 mg/kg in [14]. Also, the “Log 1/LD50” value in the series filed under Mus musculus [9] was determined as 5.46. Further, the ILS at 0.5 mg/kg stood at 89% in the series on Mus musculus [21] and 78% with Mus musculus [22].

Turning to `COc1cc2c(c(OC)c1OC)-c1ccc(OC)c(=O)cc1[C@@H](N)CC2` [DEACETYLCOLCHICINE], the “Log 1/LD50” value in the series listed under Mus musculus [9] is reported as 3.71.

`CN[C@H]1CCc2cc(OC)c(OC)c(OC)c2-c2ccc(OC)c(=O)cc21` [DEMECOLCINE]: the “Log 1/LD50” value in the series filed under Mus musculus [9] is 3.63.

On to `COc1cc2c(c(OC)c1OC)-c1ccc(SC)c(=O)cc1[C@@H](NC(C)=O)CC2` [THIOCOLCHICINE], for which the LD50 in series [13] and in [14] was 1 mg/kg each time. In the series listed under Mus musculus [9], the “Log 1/LD50” value is 5.62.

These data come from ChEMBL document CHEMBL1121841, “Toxicity quantitative structure--activity relationships of colchicines” (J Med Chem, 1981).
